Laboratory results as given in patent publication US8614223B2, “Pyrimidine hydroxy amide compounds as protein deacetylase inhibitors and methods of use thereof” (Acetylon Pharmaceuticals, Inc., priority 2010, dated 2013).
pIC50: −log10 of the molar value. Like-named read-outs stand apart in the source and are kept apart here.

Experiments:
[1] = target: HDAC3 (Homo sapiens (Human), UniProt O15379); assay: HDAC enzyme assay, HDAC3; conditions: for HDAC3 fold over HDAC6 IC50 (selectivity for HDAC6): ratio HDAC3/HDAC6
[2] = target: T1, HDAC6 (Homo sapiens (Human), UniProt Q9UBN7); assay: biochemical
[3] = target: HDAC1 (Homo sapiens (Human), UniProt Q13547); assay: HDAC enzyme assay, HDAC1; conditions: for HDAC1 fold over HDAC6 IC50 (selectivity for HDAC6): ratio HDAC1/HDAC6
[4] = target: HDAC2 (Homo sapiens (Human), UniProt Q92769); assay: HDAC enzyme assay, HDAC2; conditions: for HDAC2 fold over HDAC6 IC50 (selectivity for HDAC6): ratio HDAC2/HDAC6
[5] = test system: refractory relapsed MM; conditions: 202 patients with refractory relapsed MM; cited from earlier work
[6] = target: T1, HDAC6; conditions: read-out: HDAC6 IC50

Sequence of HDAC2 (Q92769 whole entry): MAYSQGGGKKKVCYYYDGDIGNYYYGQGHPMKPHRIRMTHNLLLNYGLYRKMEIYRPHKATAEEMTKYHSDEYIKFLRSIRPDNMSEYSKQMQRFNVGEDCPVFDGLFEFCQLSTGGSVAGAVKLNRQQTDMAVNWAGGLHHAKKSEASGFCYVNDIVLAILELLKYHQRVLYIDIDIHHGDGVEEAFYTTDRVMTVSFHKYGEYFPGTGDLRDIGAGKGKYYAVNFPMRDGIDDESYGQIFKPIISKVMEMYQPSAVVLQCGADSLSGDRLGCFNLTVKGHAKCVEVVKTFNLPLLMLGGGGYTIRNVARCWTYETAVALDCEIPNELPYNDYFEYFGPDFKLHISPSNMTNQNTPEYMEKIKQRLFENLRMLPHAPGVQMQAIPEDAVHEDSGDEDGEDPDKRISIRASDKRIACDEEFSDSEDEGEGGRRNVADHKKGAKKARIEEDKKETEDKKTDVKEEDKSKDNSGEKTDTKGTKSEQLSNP
T1 sequence (Q9UBN7 whole entry): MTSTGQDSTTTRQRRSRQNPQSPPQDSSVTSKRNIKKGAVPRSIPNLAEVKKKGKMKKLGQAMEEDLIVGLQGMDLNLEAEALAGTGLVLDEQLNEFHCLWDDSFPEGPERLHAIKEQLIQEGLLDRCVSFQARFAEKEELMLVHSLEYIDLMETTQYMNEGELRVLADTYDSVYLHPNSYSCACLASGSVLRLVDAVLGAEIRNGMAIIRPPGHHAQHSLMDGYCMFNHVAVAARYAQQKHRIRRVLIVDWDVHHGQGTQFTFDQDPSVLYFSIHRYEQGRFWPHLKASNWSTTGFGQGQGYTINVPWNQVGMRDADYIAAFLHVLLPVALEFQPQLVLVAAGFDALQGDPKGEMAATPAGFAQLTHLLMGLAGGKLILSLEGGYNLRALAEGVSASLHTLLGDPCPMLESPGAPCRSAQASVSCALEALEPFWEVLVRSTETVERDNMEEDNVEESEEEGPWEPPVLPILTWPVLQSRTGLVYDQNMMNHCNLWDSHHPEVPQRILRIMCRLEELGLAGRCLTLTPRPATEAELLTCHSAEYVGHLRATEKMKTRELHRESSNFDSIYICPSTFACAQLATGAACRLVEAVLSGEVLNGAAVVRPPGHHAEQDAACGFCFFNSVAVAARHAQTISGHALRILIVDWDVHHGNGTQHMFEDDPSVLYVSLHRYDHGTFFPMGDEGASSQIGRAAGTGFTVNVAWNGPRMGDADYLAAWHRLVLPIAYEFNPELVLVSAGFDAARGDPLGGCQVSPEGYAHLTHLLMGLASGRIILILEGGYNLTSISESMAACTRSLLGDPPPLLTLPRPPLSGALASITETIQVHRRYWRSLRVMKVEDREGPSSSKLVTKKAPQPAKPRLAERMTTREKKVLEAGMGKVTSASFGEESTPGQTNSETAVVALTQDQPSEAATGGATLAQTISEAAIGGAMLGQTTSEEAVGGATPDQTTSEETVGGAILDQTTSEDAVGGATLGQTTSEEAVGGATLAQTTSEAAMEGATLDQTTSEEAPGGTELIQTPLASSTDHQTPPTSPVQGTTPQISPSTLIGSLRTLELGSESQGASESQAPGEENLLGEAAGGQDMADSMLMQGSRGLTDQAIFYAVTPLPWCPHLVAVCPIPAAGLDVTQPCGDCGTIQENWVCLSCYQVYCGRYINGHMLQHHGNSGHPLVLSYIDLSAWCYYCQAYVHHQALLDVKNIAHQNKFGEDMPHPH
Sequence of HDAC1 (Q13547 whole entry): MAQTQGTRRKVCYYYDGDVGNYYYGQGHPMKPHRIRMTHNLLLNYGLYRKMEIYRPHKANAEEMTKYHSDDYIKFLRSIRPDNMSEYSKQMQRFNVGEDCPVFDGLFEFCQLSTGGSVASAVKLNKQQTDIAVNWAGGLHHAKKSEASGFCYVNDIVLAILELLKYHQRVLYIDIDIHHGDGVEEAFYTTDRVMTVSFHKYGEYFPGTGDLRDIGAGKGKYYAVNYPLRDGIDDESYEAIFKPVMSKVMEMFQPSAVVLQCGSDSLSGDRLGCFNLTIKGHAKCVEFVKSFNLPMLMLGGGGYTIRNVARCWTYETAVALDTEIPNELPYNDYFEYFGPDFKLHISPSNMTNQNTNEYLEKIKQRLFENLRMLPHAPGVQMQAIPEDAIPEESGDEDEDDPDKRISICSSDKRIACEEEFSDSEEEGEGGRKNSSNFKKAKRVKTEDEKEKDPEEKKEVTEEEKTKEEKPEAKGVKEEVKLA
Sequence of HDAC3 (O15379 whole entry): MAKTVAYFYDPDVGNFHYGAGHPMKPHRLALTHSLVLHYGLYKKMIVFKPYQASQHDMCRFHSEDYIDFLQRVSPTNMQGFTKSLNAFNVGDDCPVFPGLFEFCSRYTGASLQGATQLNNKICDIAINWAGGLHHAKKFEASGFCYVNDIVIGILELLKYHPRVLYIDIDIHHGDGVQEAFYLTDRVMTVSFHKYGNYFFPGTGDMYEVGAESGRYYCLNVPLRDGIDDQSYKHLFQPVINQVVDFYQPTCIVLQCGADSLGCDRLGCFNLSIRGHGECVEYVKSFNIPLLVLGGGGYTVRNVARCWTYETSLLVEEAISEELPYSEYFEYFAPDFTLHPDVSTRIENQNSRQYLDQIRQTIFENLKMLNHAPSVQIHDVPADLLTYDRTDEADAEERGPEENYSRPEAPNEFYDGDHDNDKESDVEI
Sequence of HDAC3 (Q9Y618 395-489 partner): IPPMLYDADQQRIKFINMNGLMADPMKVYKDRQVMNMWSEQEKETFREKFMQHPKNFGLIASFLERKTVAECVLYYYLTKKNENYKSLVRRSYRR

COc1ccc(C2(Nc3ncc(C(=O)NO)cn3)CC2)cc1 [Compound 97]
pIC50 [1]: 7.43
HDAC3 fold over HDAC6 IC50 (selectivity for HDAC6) [1]: (16.4x)
pIC50 [2]: 8.70
pIC50 [3]: 7.72
HDAC1 fold over HDAC6 IC50 (selectivity for HDAC6) [3]: (8.3x)
pIC50 [4]: 7.55
HDAC2 fold over HDAC6 IC50 (selectivity for HDAC6) [4]: (12.1x)

CC(C)C[C@H](NC(=O)[C@H](Cc1ccccc1)NC(=O)c1cnccn1)B(O)O [bortezomib]
complete and near complete responses [5]: 10%
patients did not respond [5]: 65%
responses [5]: 35%

O=C(NO)c1cnc(Nc2ccc(F)cc2)nc1 [Compound 3]
HDAC3 fold over HDAC6 IC50 (selectivity for HDAC6) [1]: (44.9x)
pIC50 ([1]; read-out: HDAC3 IC50): 6.45
pIC50 [6]: 8.10
HDAC1 fold over HDAC6 IC50 (selectivity for HDAC6) [3]: (26.7x)
pIC50 ([3]; read-out: HDAC1 IC50): 6.68
HDAC2 fold over HDAC6 IC50 (selectivity for HDAC6) [4]: (44.1x)
pIC50 ([4]; read-out: HDAC2 IC50): 6.46

O=C(NO)c1cnc(NC2(c3cc4ccccc4s3)CC2)nc1 [Compound 102]
HDAC3 fold over HDAC6 IC50 (selectivity for HDAC6) [1]: (18x)
pIC50 ([1]; read-out: HDAC3 IC50): 7.48
pIC50 [6]: 8.70
HDAC1 fold over HDAC6 IC50 (selectivity for HDAC6) [3]: (7.4x)
pIC50 ([3]; read-out: HDAC1 IC50): 7.89
HDAC2 fold over HDAC6 IC50 (selectivity for HDAC6) [4]: (11.3x)
pIC50 ([4]; read-out: HDAC2 IC50): 7.68

O=C(NO)c1cnc(NC2(c3ccccc3)CCC2)nc1 [Compound 130]
HDAC3 fold over HDAC6 IC50 (selectivity for HDAC6) [1]: (160.9x)
pIC50 ([1]; read-out: HDAC3 IC50): 6.28
pIC50 [6]: 8.52
HDAC1 fold over HDAC6 IC50 (selectivity for HDAC6) [3]: (43.3x)
pIC50 ([3]; read-out: HDAC1 IC50): 6.85
HDAC2 fold over HDAC6 IC50 (selectivity for HDAC6) [4]: (48.9x)
pIC50 ([4]; read-out: HDAC2 IC50): 6.80
